According to article PMC11857211, “Bioprospecting Bioactive Peptides in Halobatrachus didactylus Body Mucus: From In Silico Insights to Essential In Vitro Validation” (Marine Drugs, 2025):
“Also recorded” adds a separate entry of the source.

How the values were obtained:
[1] = High-performance size exclusion chromatography (HPSEC): molecular size and aggregation; assay type: physicochemical; conditions: for Aggregation behaviour in HPSEC: Agilent AdvanceBio SEC 130 Å, isocratic, buffers 344 mM or 700 mM at pH 3.0, 5.0, 7.0, PDA detection
Description: The HPSEC column was eluted with 344 mM of a phosphate buffer at pH 7.0, replicating the conditions used to analyze the mucus peptide fraction in our previous article. During the analysis, we observed the formation of peptide aggregates, specifically oligomers, including dimers, trimers, and tetramers. Various buffer conditions were tested to determine if a particular pH and ionic strength would enable the peptides to expose their theoretical molecular weights, as specified in the GenScript technical datasheet. Since seawater typically has an ionic strength of approximately 700 mM [10], buffers with this ionic strength were tested at pH 3.0, 5.0, and 7.0, as well as at 344 mM of ionic strength.
The peptides’ molecular size validation was determined using high-performance size exclusion chromatography (HPSEC). An Agilent AdvanceBio SEC column (Agilent Technologies, London, UK), 2.7 µm in particle size, 130 Å in pore size, and 7.8 in inner diameter × 300 mm in length, was used. The column was eluted isocratically using various buffers with different pH and ionic strengths, namely, 344 mM at pH 7 (0.15 M of a phosphate buffer with NaH2PO4), 700 mM at pH 7 (0.15 M of a phosphate buffer with NaH2PO4 and NaCl), 344 mM at pH 5 (0. 15 M of an acetate buffer with acetic acid and NaCl), 700 mM at pH 5 (0.15 M of an acetate buffer with acetic acid and NaCl), 344 mM at pH 3 (0.05 M of a formate buffer with fomic acid and NaCl), and 700 mM at pH 3 (0.05 M of a formate buffer with formic acid and NaCl) at a flow rate of 1 mL/min. The sample injection volume was 10 µL. The instrument used was Waters 2690 with a photodiode array detector (PDA 190–600 nm). The software Empower 3 was used for data collection. To determine the molecular weights of the resulting chromatogram peaks, a calibration curve was made with the following protein standards: Ovalbumin (44,300 Da), Myoglobin (17,600 Da), Cytochrome C (12,327 Da), Aprotinin (6511 Da), Neurotensin (1672 Da), Angiotensin-II (1040 Da), Tyr-Phe dipeptide (328.4 Da), and L-tryptophan (204 Da).

[2] = test system: P. aeruginosa biofilm; test: Antibiofilm activity (crystal violet); assay type: cell-based, Pseudomonas aeruginosa; conditions: 24 h incubation, HdKTLR 262, HdKNL 262, HdPPP 130, HdVLPN 204, HdLPN 227 µg/mL, OD 595 nm
Description: (§1) The antibiofilm activity was determined according to the following method, with some modifications. Taking the microplate from 24 h inhibition growth curves, the contents of the plate were discarded, and each well was carefully washed three times with distilled water to remove non-adherent cells. The adhered cells were fixed with 150 µL of methanol for 10 min. Then, the methanol was discarded, the plates were left to dry, and then, the fixed biofilm was stained with […] of crystal violet (CV) for 10 min. Excess stain was rinsed out by placing the plate under slow-running tap water. Once the plates were air-dried, the dye attached to the adherent cells was resolubilized by adding 150 µL of 33% (v/v) glacial acetic acid and agitated for 15 min. The optical density of the solution obtained was measured at 595 nm using a multidetection plate reader (Synergy H1, Winooski, VT, USA). All tests were carried out in duplicate, with a positive control using an inoculated culture in MH broth and a negative control using MH broth only. The results are presented as the percentage of biofilm formation, calculated according to the following formula, where the OD of the sample is the measured OD of the inoculated medium mixed with the peptides, and the OD of the positive control is the OD measured for the positive control.% Biofilm formation = (ODsample/ODpositive control) × 100(1)

[3] = test system: S. aureus biofilm; test: Antibiofilm activity (crystal violet); assay type: cell-based, Staphylococcus aureus; conditions: 24 h incubation, HdKTLR 262, HdKNL 262, HdPPP 130, HdVLPN 204, HdLPN 227 µg/mL, OD 595 nm
Description: as §1

[4] = test system: Salmonella enterica serovar Enteritidis ATCC 13076; test: Growth inhibition curves; assay type: cell-based; conditions: HdKTLR 262, HdKNL 262, HdPPP 130 (5% DMSO), HdVLPN 204, HdLPN 227 µg/mL; MH broth, OD 600 nm hourly, 24 h, 37 °C
Description: (§2) The antimicrobial activity of the mucus samples was evaluated following the method by against the following pathogenic bacteria: Gram-negative Escherichia coli ATCC 25922, Salmonella enterica serovar Enteritidis ATCC 13076, and Pseudomonas aeruginosa ATCC 27853 and Gram-positive Staphylococcus aureus ATCC 6538. The mucus samples were combined with a 1/10 ratio of inoculum containing 1% (v/v) of bacteria cultured for 24 h in MH broth. For the positive control, deionized water was used instead of mucus samples with a 1% inoculum, while deionized water with MH served as the negative control. A control using chloramphenicol was made at a concentration of 16 µg/mL for E. coli, S. enterica, and P. aeruginosa and 100 µg/mL for S. aureus. The mixture was then transferred to a 96-well microplate (Sarstedt, Germany), and the optical density (OD) at 600 nm was measured every hour for a 24 h period at 37 °C using a microplate reader (Multiskan GO, Thermo Scientific, Finland). An increase in OD indicated bacterial growth.

[5] = test system: Pseudomonas aeruginosa ATCC 27853; test: Growth inhibition curves; assay type: cell-based; conditions: HdKTLR 262, HdKNL 262, HdPPP 130 (5% DMSO), HdVLPN 204, HdLPN 227 µg/mL; MH broth, OD 600 nm hourly, 24 h, 37 °C
Description: as §2

[6] = test system: Escherichia coli ATCC 25922; test: Growth inhibition curves; assay type: cell-based; conditions: HdKTLR 262, HdKNL 262, HdPPP 130 (5% DMSO), HdVLPN 204, HdLPN 227 µg/mL; MH broth, OD 600 nm hourly, 24 h, 37 °C
Description: as §2

[7] = test system: Staphylococcus aureus ATCC 6538; test: Growth inhibition curves; assay type: cell-based; conditions: HdKTLR 262, HdKNL 262, HdPPP 130 (5% DMSO), HdVLPN 204, HdLPN 227 µg/mL; MH broth, OD 600 nm hourly, 24 h, 37 °C
Description: as §2

[8] = ABTS radical scavenging assay; conditions: for Effect of pH and ionic strength on ABTS antioxidant activity: ABTS radical solution in HPSEC buffers, 344 and 700 mM, pH 3.0, 5.0, 7.0; for ABTS radical scavenging value: SD
Description: ABTS radical activity is based on an antioxidant’s capacity to scavenge the ABTS’s oxidized state. For this, ABTS radical scavenging activity was performed in a 96-well microplate, following the method described by. The absorbance was measured with a multidetection plate reader (Synergy H1, Winooski, VT, USA). For each sample, the standard and control analyses were duplicated. All measurements were performed in duplicate. The results are expressed in µmol of Trolox equivalents/µmol of peptide. To test the antioxidant activity under different pH and ionic strength conditions, the ABTS radical solution was prepared using the same buffers employed in the HPSEC analysis.

[9] = pH 3 and 344 mM ionic strength, means (n ≥ 3) ± SD
[10] = pH 7.0 and 700 mM ionic strength, means (n ≥ 3) ± SD

| Sequence | Aggregation behaviour in HPSEC [1] | Biofilm formation versus control [2] | Biofilm formation versus control [3] | Antimicrobial activity (growth inhibition curve) [4] | Antimicrobial activity (growth inhibition curve) [5] | Antimicrobial activity (growth inhibition curve) [6] | Antimicrobial activity (growth inhibition curve) [7] | Effect of pH and ionic strength on ABTS antioxidant activity [8] | ABTS ([8]; peptide in H2O (HdPPP in DMSO), means (n ≥ 3) ± SD, nd: not detected) | Molecular weight observed by HPSEC (aggregate) ([1]; buffers with ionic strengths of 344 mM and 700 mM at pH 7.0 and pH 5.0, theoretical molecular weight 1588.4 Da) | ABTS radical scavenging value [8, 9] | ABTS radical scavenging value [8, 10] |
| --- | --- | --- | --- | --- | --- | --- | --- | --- | --- | --- | --- | --- |
| DPPNPKNL [HdKNL] | aggregate formation increased at higher pH conditions; also recorded: aggregation was still observed | substantially reduced biofilm production | no significant differences | did not demonstrate antimicrobial potential | did not demonstrate antimicrobial potential | did not demonstrate antimicrobial potential | did not demonstrate antimicrobial potential | remained unaffected by a decrease in pH | no antioxidant activity was observed |  |  |  |
| EDNSELGQETPTLR [HdKTLR] | formation of aggregates into oligomers; also recorded: pronounced aggregation | substantially reduced biofilm production | no significant differences | did not demonstrate antimicrobial potential | did not demonstrate antimicrobial potential | did not demonstrate antimicrobial potential | did not demonstrate antimicrobial potential | no observable antioxidant activity |  | approximately 7836 Da |  |  |
| PFPGPLPN [HdLPN] | forming only dimers; also recorded: aggregation was still observed | substantially reduced biofilm production | no significant differences | did not demonstrate antimicrobial potential | did not demonstrate antimicrobial potential | did not demonstrate antimicrobial potential | did not demonstrate antimicrobial potential | significant decrease in antioxidant activity |  |  | 0.012 ± 0.004 µmol TE/µmol of peptide | 0.283 ± 0.177 µmol TE/µmol of peptide |
| VYPFPGPLPN [HdVLPN] | degree of polymerization was less prominent than in the other peptides; also recorded: aggregation was still observed | substantially reduced biofilm production | no significant differences | did not demonstrate antimicrobial potential | did not demonstrate antimicrobial potential | did not demonstrate antimicrobial potential | did not demonstrate antimicrobial potential | significant decrease in antioxidant activity |  |  | 0.163 ± 0.002 µmol TE/µmol of peptide | 0.827 ± 0.021 µmol TE/µmol of peptide |
